pIC50: −log10 of the molar value.
Tests used:
neural progenitor = tested on: neural progenitor; design: method as in PMID 27430371; conditions: cited from earlier work
[1] = tested on: mutant huntingtin-induced neurodegeneration; test: Viral model of Huntington's disease, AAV expression of mutant huntingtin (AAV-htt94Q) in mouse striatum; format: in vivo, C57BL/6 N mice; conditions: 10 mg/kg/day oral
Experimental: Male C57BL/6 N mice (10 weeks old) were housed under standard conditions (12-h light/dark cycle) in groups with access to food and water ad libitum. All experiments were performed in accordance with European Union guidelines and approved by the Animal Research Ethics Committee of Complutense and Córdoba University. Procedures were designed to minimize the number of animals used and their suffering. Constructs expressing CFP-tagged human huntingtin exon 1 harboring a pathogenic polyQ tract of 94 CAG repeats or a normal, non-pathogenic polyQ tract of 16 CAG repeats (kindly provided by Dr. José J. Lucas, Severo Ochoa Molecular Biology Center, Madrid, Spain) were employed using an AAV1/AAV2 mixed serotype, generated by polyethyleneimine transfection of HEK293T cells and subsequent purification in iodixanol gradient. Vectors were injected stereotactically (in 3 μl PBS) into the dorsal striatum in a bilateral manner at coordinates (mm to bregma): antero-posterior + 0.5, lateral ±2.5, dorso-ventral − 3.5 as previously described. VCE-003.2 (10 mg/kg) or vehicle (sesame oil) were orally administered once daily (Fig. 1), and for neurogenesis experiments BrdU (100 mg/kg) was administered i.p. twice daily on the first week after viral injection. RotaRod test was conducted prior to drug injections to avoid acute effects of the compounds under investigation. RotaRod started at 4 rpm, with an acceleration rate of 6 rpm/min until either maximum speed is reached or the mouse falls from the apparatus. Maximum time assay was 10 min. Basal RotaRod performance was determined 6 days prior to striatal injury in 3 consecutive days with 3 trials/day (30 min of rest between each trial), and groups with equivalent motor function were assigned. RotaRod test was performed during 3 consecutive days prior to sacrifice and plasma was obtained for peripheral biomarker analyses. All experiments included a minimum of 6 mice per condition. The precise number of animals analyzed in each experiment is indicated in the corresponding figure legends.
Free floating coronal brain slices (30 μm) were processed as previously described. In brief, after blocking with 10% goat serum, brain sections were incubated with the indicated primary antibodies followed by secondary antibody incubation (2 h at room temperature). The appropriate mouse, rat and rabbit highly cross-adsorbed AlexaFluor 488, AlexaFluor 594 and AlexaFluor 647 secondary antibodies (1:500; Molecular Probes, Leyden, The Netherlands) were used. Samples were subsequently incubated with DAPI (1:5000, Roche) for 10 min, washed with PBS and mounted in Mowiol. All immunofluorescence data were obtained in a blinded manner by independent observers in a minimum of 6 correlative slices, from 1-in-10 series located between − 0.4 to + 1.6 mm to bregma. The lateral SVZ zone was delineated by using DAPI-counterstained cell nuclei, and analyses were performed in the upper dorsal tier, in which positively-labelled cells and immunoreactivity were quantified not beyond 100 μm of the SVZ. Confocal fluorescence images were acquired by using LAS-X software (Wetzlar, Germany) and SP8 microscope with 2 passes by Kalman filter, a 1024X1024 collection box, and pinhole AU 1. […] Cells were quantified within a 20 × 20 μm counting frame, which randomly sampled within a 122.8 × 68.9 μm counting grid. Cells that contacted the lateral or upper exclusion plane were excluded. The total number of cells counted was divided by the number of sampled counting frames and multiplied by its size to obtain the density of positive cells. Co-localization was confirmed by orthogonal projection of 18 z-stack files (1-μm each), and data were expressed as cells/mm^2. […]

hERG channel [2] = molecular target: T1, hERG channel (Homo sapiens, UniProt Q12809); test: hERG channel inhibition, IonWorks HT electrophysiology in CHO-hERG cells
T1 sequence (Q12809 whole entry): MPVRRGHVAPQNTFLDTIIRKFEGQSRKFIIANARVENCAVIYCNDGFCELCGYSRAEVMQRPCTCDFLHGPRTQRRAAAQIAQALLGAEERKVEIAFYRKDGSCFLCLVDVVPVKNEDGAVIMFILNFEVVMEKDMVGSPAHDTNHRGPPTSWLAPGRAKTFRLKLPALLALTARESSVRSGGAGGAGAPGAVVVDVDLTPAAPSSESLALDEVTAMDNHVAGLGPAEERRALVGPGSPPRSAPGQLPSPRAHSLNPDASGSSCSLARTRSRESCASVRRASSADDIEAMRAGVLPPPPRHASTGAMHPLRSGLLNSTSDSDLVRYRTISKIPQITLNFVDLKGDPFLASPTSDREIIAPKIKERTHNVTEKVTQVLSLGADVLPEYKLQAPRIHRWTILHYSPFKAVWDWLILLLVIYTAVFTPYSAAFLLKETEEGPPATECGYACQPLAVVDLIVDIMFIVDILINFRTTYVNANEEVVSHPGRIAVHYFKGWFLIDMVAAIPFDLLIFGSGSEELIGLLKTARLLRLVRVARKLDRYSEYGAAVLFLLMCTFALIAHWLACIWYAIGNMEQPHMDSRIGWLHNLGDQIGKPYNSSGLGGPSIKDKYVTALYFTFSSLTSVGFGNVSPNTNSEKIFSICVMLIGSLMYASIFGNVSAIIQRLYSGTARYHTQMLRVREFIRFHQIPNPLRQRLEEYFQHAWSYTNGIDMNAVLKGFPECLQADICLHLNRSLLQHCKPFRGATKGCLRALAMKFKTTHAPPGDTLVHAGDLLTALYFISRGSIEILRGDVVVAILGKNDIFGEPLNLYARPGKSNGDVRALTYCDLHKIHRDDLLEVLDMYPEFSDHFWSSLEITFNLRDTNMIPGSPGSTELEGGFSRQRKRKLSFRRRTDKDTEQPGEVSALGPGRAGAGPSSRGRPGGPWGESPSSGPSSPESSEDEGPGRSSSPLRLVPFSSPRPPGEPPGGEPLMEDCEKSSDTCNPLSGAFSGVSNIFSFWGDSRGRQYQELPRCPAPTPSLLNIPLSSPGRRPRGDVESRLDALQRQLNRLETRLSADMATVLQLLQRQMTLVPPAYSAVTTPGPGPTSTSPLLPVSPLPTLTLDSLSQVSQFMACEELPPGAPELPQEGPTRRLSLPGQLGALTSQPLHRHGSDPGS

[3] = tested on: 3-NP model of striatal neurodegeneration; test: 3-Nitropropionic acid (3-NP) model of striatal neurodegeneration; format: in vivo, C57BL/6 N male mice; conditions: 10 mg/kg oral gavage every 24 h, sesame oil
Experimental: Supplementary file 40035_2019_148_MOESM6_ESM.pdf: Additional file 6: 3-Nitroproprionic acid model of striatal neurodegeneration. 16-week- old C57BL/6 N male mice (Harlan Ibérica, Barcelona, Spain) were subjected to seven intraperitoneal (i.p.) injections of 50 mg/kg 3-NP (one injection each every 12 h prepared in phosphate-buffered saline (PBS)]. 3-NP-treated animals and their respective non-lesioned controls (injected with PBS) were used for pharmacological studies with VCE-003.2. Treatments consisted of oral gavage every 24 h with VCE-003.2 at a dose of 10 mg/kg using sesame oil as vehicle. 12 h after the last injection of 3-NP motor activity, hindlimb clasping and kyphosis were evaluated as previously described. Animals were euthanized at the indicated time after huntingtin-AAV infection or 12 h after the last injection of 3NP and their brains removed. Statistical analysis: One-way ANOVA followed by the Tuckey’s post hoc test was used to determine the statistical significance. All the in vivo data were expressed as mean ± SEM. […]

hERG channel [4] = molecular target: T1, hERG channel
[5] = AAV-htt16Q and AAV-htt94Q mice, 30 days
[6] = AAV-htt94Q mice, 4 weeks after lesion

Q: Which neural progenitor survival (neural progenitor) does the source give for CCCCCC1=C(NCC)C(=O)C(CC=C(C)CCC=C(C)C)=C(O)C1=O [VCE-003.2, 2-(3,7-dimethyl-octa-2,6-dienyl)-6-ethylamino-3-hydroxy-5-pentyl-(1,4) benzoquinone] here?
A: increases neural progenitor survival

Q: And the “doublecortin-positive neuroblasts in striatum” value [1, 5]?
A: increased doublecortin-expressing cells

Q: What about the “effective neurogenesis, double-positive NeuN/BrdU neurons” value [1, 5] of the same compound?
A: effective in promoting neurogenesis

Q: And the “Ascl1-positive transit amplifying progenitors” value [1, 6]?
A: further promoted Ascl1-positive cell expansion

Q: And the “proliferating SVZ neural stem cells, GFAP/Ki-67 double-labelled” value [1, 6]?
A: increased the number of proliferating GFAP-positive cells

Q: What about the “motor performance, RotaRod latency to fall” value ([1]; AAV-htt94Q mice, 14 days, vs vehicle) of the same compound?
A: performed better in the RotaRod test

Q: What about the “MSN degeneration, DARPP-32 and NeuN immunofluorescence” value ([1]; AAV-htt94Q mice, 30 days after lesion) of the same compound?
A: prevented htt94Q-induced MSN degeneration

Q: And the “microglial activation, Iba1 immunoreactivity” value ([1]; AAV-htt94Q mice, vs vehicle)?
A: reduced microglial activation

Q: What about the pIC50 (hERG channel [2]) of the same compound?
A: < 4.60

Q: What about the “neuroprotection and anti-inflammatory effect in 3-NP model” value [3] of the same compound?
A: neuroprotective and anti-inflammatory

Q: What about the “hERG channel activity inhibition (in words)” value (hERG channel [4]) of the same compound?
A: did not inhibit hERG channel activity

Reference: article PMC6407204, “Oral administration of the cannabigerol derivative VCE-003.2 promotes subventricular zone neurogenesis and protects against mutant huntingtin-induced neurodegeneration” (Translational Neurodegeneration, 2019)
